Results reported in patent publication US20120252045A1, “METHOD OF ASSESSING ISLET FUNCTION” (priority 2009, published 2012).
Where two headings read alike, the source gives them in different places.

What was measured:
β-TC6 cells = conditions: n=4
Method: (§1) Porcine islet OCRs were assessed in triplicate aliquots of 1000 IEQ. Controls comprising media alone and heat-killed islets (1000 IEQ ×3 incubated for 1 hour at 60° C.) were assayed in parallel. OCRs were measured using a fiber optic sensor oxygen monitoring system (Instech Laboratories Plymouth Meeting, Pa.), which quantifies the decrease in oxygen partial pressure (pO2) over time, as described by Papas et al., “A Stirred Microchamber for Oxygen Consumption Rate Measurements with Pancreatic Islet Cells,” Biotechnol Bioeng 2007; 98: 1071-1082. OCRs were standardized to the amount of DNA in each chamber (nmol/min-mgDNA), which was determined using a Quant-iT PicoGreen dsDNA kit (Molecular Probes, Eugene, Oreg.).
Reductions in OCR were assessed by comparing the effect of the NaAz on the OCR measurements to the OCR capability of non-treated cells. BTC6 cells and Hela cells were incubated on 150 mm culture dishes for 2 days in a 37° C. incubator with a 5% CO2 environment. The cells were then removed using 5 mM EDTA/PBS and washed once with PBS. The resulting cell pellet was resuspended in 5 mL of DMEM (Sigma) supplemented with 5% FCS (Sigma) and Penicillin/Streptomycin (Invitrogen). Cells were then incubated with various concentrations (0.01, 0.1, 1.0 and 10 mg/ml) of sodium azide (Sigma) for 10 minutes prior to measuring their oxygen consumption rates.

adult porcine islets = conditions: vs non-NaAz treated cells
Method: as §1
The experiment was repeated 3 times.

[N-]=[N+]=[N-] [NaAz, sodium azide]
reduction in OCR (β-TC6 cells; β-TC6 cells incubated with 0.1 mg/ml NaAz for 10 minutes): 29.8±4.5% | reduction in OCR (β-TC6 cells; β-TC6 cells incubated with 1 mg/ml NaAz for 10 minutes): 71.2±6.6% | reduction in OCR (β-TC6 cells; β-TC6 cells incubated with 10 mg/ml NaAz for 10 minutes): 85.9±2.3% | reduction in OCR (adult porcine islets; islets incubated with 0.1 mg/ml NaAz for 10 minutes): 37.6% | reduction in OCR (adult porcine islets; islets incubated with 1 mg/ml NaAz for 10 minutes): 59.7% | reduction in OCR (adult porcine islets; islets incubated with 10 mg/ml NaAz for 10 minutes): 84.2%
